# From patent US20200087314A1, “HISTONE DEACETYLASE INHIBITORS” (BIOMARIN PHARMACEUTICAL INC., priority 2016, published 2020)
# System: Frataxin (FXN) mRNA expression
# Assay: Effect of HDAC inhibitors on frataxin (FXN) mRNA expression in iPSC derived neuronal cells (qRT-PCR)
# Type: cell-based
# Conditions: iPSC derived neuronal cells differentiated 16 days, compound incubated 24 h
# Protocol: Effect of HDAC Inhibitors on Frataxin (FXN) mRNA Expression
# Method: mRNA quantification of compound-treated iPSC derived neuronal cells Neuronal stem cells were cultured in Neurobasal A medium (Life technologies #10888022) supplemented with N2, B27 (Life technologies #17502-048 and #17504-044), L-glutamine (Life technologies #25030081), supplemented with 20 ng/ml EGF (R&D Systems #236-EG) and 20 ng/ml bFGF (BioPioneer # HRP-0011). Neuronal differentiation was initiated by removing growth factors and culturing cells in Neurobasal A with N2 and B27. Cells were allowed to differentiate for 16 days. HDAC inhibitory compound was then added and incubate for 24 h. RNA isolation was performed using the RNeasy Plus mini kit (QIAgen #74134) using a QIAcube instrument per manufacturer's instructions. qRT-PCR was performed using qScript One-Step SYBR Green qRT-PCR Kit (Quanta Biosciences 170-8893BR) with the following conditions: 20 minutes at 50° C., 5 minutes at 95° C., and then 40 cycles of 20 seconds at 95° C., 20 seconds at 55° C., 30 seconds at 72° C. The primer sequences to detect expression of FXN were: 5′-[…]-3′ and 5′-[…]-3′.
# Data for additional compounds for iPSC fold inductions and cLogP are shown in Table 4 The ranges reported for cLogP refer to the following. A<1, 1<B<2, 2<C<3, 3<D<5, E>5. NA refers to “not available.”
smiles,measurement,value
"CC(C)(O)CN1CCN(Cc2ccc(C(=O)Nc3ccccc3N)cc2)CC1.Cl.Cl.Cl [Compound 146, N-(2-aminophenyl)-4-((4-(2-hydroxy-2-methylpropyl)piperazin-1-yl)methyl)benzamide]",Fold Induction,1.8
